Active and inactive are the calls of the source.
Key:
[1] = Acute toxicity in ICR mouse assessed as altered water consumption at 1200 mg/kg, po and measured after 4 hrs; format: organism-based; details: in vivo
SH-SY5Y [2] = experiment: Neuroprotective activity in human SH-SY5Y cells assessed as inhibition of okadaic acid-induced mitochondrial membrane potential by measuring increase in red-to-green fluorescence intensity ratio pretreated for 24 hrs followed by okadaic acid addition for 24 hrs by JC-1 dye based fluorescence analysis; format: functional, cell-based
[3] = Acute toxicity in ICR mouse assessed as abnormal behavior at 1200 mg/kg, po and measured after 24 hrs; format: organism-based; details: in vivo
Mus musculus [4] = experiment: Antialzheimer activity in scopolamine-induced cognitive impairment ICR mouse model assessed as distance to reach target at 15 mg/kg,ip qd for 10 days followed by scopolmaine-stimulation measured on day 16 by Morris water maze test (Rvb= 16.93 +/- 5.88 meter); format: functional; details: time 10 day
[5] = target: T1, Amyloid-beta precursor protein (Homo sapiens, UniProt P05067); experiment: Inhibition of Cu2+ induced amyloid beta (1 to 42 ) (unknown origin) aggregation incubated for 24 hr by Thioflavin T based fluorometric assay
T1 sequence (P05067 whole entry): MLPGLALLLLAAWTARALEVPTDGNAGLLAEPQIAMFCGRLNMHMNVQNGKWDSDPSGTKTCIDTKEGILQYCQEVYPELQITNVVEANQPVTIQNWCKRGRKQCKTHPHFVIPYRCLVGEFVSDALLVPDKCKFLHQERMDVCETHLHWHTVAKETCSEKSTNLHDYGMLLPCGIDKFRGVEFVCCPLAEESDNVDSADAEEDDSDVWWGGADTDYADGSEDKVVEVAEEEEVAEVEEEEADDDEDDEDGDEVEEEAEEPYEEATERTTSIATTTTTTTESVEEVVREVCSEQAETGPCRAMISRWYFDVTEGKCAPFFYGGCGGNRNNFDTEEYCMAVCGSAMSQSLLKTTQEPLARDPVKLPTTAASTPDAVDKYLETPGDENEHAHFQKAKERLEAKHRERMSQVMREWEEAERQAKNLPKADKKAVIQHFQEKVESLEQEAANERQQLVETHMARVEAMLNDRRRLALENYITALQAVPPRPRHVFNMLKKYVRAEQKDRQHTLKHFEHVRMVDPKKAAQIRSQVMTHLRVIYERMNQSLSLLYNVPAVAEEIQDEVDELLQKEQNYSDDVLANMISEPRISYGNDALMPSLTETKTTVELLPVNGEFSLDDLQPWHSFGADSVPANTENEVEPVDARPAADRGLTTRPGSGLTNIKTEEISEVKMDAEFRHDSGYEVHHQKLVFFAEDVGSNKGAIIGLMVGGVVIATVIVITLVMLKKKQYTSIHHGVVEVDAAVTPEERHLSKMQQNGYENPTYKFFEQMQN

[6] = target: T1, Amyloid-beta precursor protein; experiment: Inhibition of Cu2+ induced amyloid beta (1 to 42 ) (unknown origin) aggregation assessed as reduction in fibrils incubated for 24 hr by TEM analysis
[7] = Acute toxicity in ICR mouse assessed as mortality at 1200 mg/kg, po and measured after 24 hrs; format: organism-based; details: in vivo
SH-SY5Y [8] = experiment: Neuroprotective activity in human SH-SY5Y cells assessed as inhibition of okadaic acid-induced mitochondrial membrane potential by measuring increase in red-to-green fluorescence intensity ratio at 1 to 10 uM pretreated for 24 hrs followed by okadaic acid addition for 24 hrs by JC-1 dye based fluorescence analysis; format: functional, cell-based; details: dose 1-10 µM
[9] = Acute toxicity in ICR mouse assessed as change in body weight at 1200 mg/kg, po and measured after 14 days; format: organism-based; details: in vivo, 336 h, time 14 day
SH-SY5Y [10] = experiment: Antialzheimer activity in human SH-SY5Y cells assessed as inhibition of GA-induced tau hyperphosphorylation at Ser199 residue at 0.1 to 3 uM incubated for 24 hrs by ELISA; format: functional, cell-based; details: dose 0.1-3 µM
SH-SY5Y [11] = experiment: Cytotoxicity against human SH-SY5Y cells assessed as reduction in cell viability upto 50 uM incubated for 24 hrs by MTT assay; format: toxicity, cell-based
[12] = Acute toxicity in ICR mouse assessed as abnormal behavior at 1200 mg/kg, po and measured after 14 days; format: organism-based; details: in vivo, 336 h, time 14 day
[13] = Acute toxicity in ICR mouse assessed as mortality at 1200 mg/kg, po and measured after 14 days; format: organism-based; details: in vivo, 336 h, time 14 day
SH-SY5Y [14] = experiment: Antialzheimer activity in human SH-SY5Y cells assessed as inhibition of GA-induced tau hyperphosphorylation at Ser396 residue incubated for 24 hrs by ELISA; format: functional, cell-based
SH-SY5Y [15] = experiment: Antioxidant activity against okadaic acid-induced ROS generation in human SH-SY5Y cells assessed as reduction in DCF fluorescence intensity at 1 to 10 uM pretreated for 24 hrs followed by okadaic acid addition for 24 hrs by DCFH-DA dye based fluorescence analysis; format: functional, cell-based; details: dose 1-10 µM
[16] = Acute toxicity in ICR mouse assessed as altered food consumption at 1200 mg/kg, po and measured after 14 days; format: organism-based; details: in vivo, 336 h, time 14 day
Mus musculus [17] = experiment: Antialzheimer activity in human oligo-merized amyloid beta (1 to 42 residues)-induced cognitive impairment C57BL/6 mouse model assessed as increase duration in novel arm at 15 mg/kg,ip qd for 10 days by Y-maze test relative to control; format: functional, organism-based; details: time 10.0 day
SH-SY5Y [18] = experiment: Antialzheimer activity in human SH-SY5Y cells assessed as inhibition of GA-induced tau hyperphosphorylation at Ser199 residue incubated for 24 hrs by ELISA; format: functional, cell-based
[19] = Acute toxicity in ICR mouse assessed as altered water consumption at 1200 mg/kg, po and measured after 24 hrs; format: organism-based; details: in vivo
[20] = Acute toxicity in ICR mouse assessed as abnormal behavior at 1200 mg/kg, po and measured after 4 hrs; format: organism-based; details: in vivo
[21] = target: T1, Amyloid-beta precursor protein; experiment: Inhibition of AChE induced HFIP-pretreated amyloid beta (1 to 42 ) (unknown origin) aggregation incubated for 24 hr by Thioflavin T based fluorometric assay
[22] = target: T1, Amyloid-beta precursor protein; experiment: Inhibition of AChE induced HFIP-pretreated amyloid beta (1 to 42 ) (unknown origin) aggregation at 0.1 to 10 uM incubated for 24 hr by Thioflavin T based fluorometric assay; details: dose 0.1-10 µM
Mus musculus [23] = experiment: Antialzheimer activity in scopolamine-induced cognitive impairment ICR mouse model assessed as time latency to reach target at 15 mg/kg,ip qd for 10 days followed by scopolmaine-stimulation measured on day 16 by Morris water maze test (Rvb= 71.89 +/- 25.59 sec); format: functional; details: time 10 day
[24] = Metal chelating activity assessed as Zn2+-compound complex formation by measuring red shift in presence of ZnCl2 at 40 uM incubated for 30 mins by UV-Visible spectrophotometry
[25] = Metal chelating activity assessed as Al3+-compound complex formation by measuring red shift in presence of AlCl3 at 40 uM incubated for 30 mins by UV-Visible spectrophotometry
[26] = Acute toxicity in ICR mouse assessed as altered food consumption at 1200 mg/kg, po and measured after 24 hrs; format: organism-based; details: in vivo
Mus musculus [27] = experiment: Antialzheimer activity in human oligo-merized amyloid beta (1 to 42 residues)-induced cognitive impairment C57BL/6 mouse model assessed as increase in percentage of time spent in the target quadrant at 15 mg/kg,ip qd for 10 days by Morris water maze test relative to control; format: functional, organism-based; details: time 10.0 day
[28] = Metal chelating activity assessed as Fe2+-compound complex formation by measuring red shift in presence of FeSO4 at 40 uM incubated for 30 mins by UV-Visible spectrophotometry
[29] = Acute toxicity in ICR mouse assessed as altered water consumption at 1200 mg/kg, po and measured after 14 days; format: organism-based; details: in vivo, 336 h, time 14 day
Mus musculus [30] = experiment: Antialzheimer activity in human oligo-merized amyloid beta (1 to 42 residues)-induced cognitive impairment C57BL/6 mouse model assessed as decrease TNF-alpha level in cortex at 15 mg/kg,ip qd for 10 days by ELISA; format: functional, organism-based; details: time 10.0 day
SH-SY5Y [31] = experiment: Antialzheimer activity in human SH-SY5Y cells assessed as inhibition of GA-induced tau hyperphosphorylation at Ser396 residue at 0.1 to 3 uM incubated for 24 hrs by ELISA; format: functional, cell-based; details: dose 0.1-3 µM
[32] = Acute toxicity in ICR mouse assessed as change in body weight at 1200 mg/kg, po and measured after 24 hrs; format: organism-based; details: in vivo
SH-SY5Y [33] = experiment: Antioxidant activity against okadaic acid-induced ROS generation in human SH-SY5Y cells assessed as reduction in DCF fluorescence intensity pretreated for 24 hrs followed by okadaic acid addition for 24 hrs by DCFH-DA dye based fluorescence analysis; format: functional, cell-based
Mus musculus [34] = experiment: Antialzheimer activity in human oligo-merized amyloid beta (1 to 42 residues)-induced cognitive impairment C57BL/6 mouse model assessed as increase in ratio of brain to body weight at 15 mg/kg,ip qd for 10 days by Morris water maze test; format: functional, organism-based; details: time 10.0 day
Acetylcholinesterase [35] = target: Acetylcholinesterase (Homo sapiens, UniProt P22303); experiment: Inhibition of AChE in human SH-SY5Ycells assessed as reduction AChE activity using acetylthiocholine as substrate incubated for 24 hrs by DTNB based Ellman's method; format: cell-based, SH-SY5Y
Sequence of Acetylcholinesterase (Homo sapiens, UniProt P22303) (P22303 whole entry): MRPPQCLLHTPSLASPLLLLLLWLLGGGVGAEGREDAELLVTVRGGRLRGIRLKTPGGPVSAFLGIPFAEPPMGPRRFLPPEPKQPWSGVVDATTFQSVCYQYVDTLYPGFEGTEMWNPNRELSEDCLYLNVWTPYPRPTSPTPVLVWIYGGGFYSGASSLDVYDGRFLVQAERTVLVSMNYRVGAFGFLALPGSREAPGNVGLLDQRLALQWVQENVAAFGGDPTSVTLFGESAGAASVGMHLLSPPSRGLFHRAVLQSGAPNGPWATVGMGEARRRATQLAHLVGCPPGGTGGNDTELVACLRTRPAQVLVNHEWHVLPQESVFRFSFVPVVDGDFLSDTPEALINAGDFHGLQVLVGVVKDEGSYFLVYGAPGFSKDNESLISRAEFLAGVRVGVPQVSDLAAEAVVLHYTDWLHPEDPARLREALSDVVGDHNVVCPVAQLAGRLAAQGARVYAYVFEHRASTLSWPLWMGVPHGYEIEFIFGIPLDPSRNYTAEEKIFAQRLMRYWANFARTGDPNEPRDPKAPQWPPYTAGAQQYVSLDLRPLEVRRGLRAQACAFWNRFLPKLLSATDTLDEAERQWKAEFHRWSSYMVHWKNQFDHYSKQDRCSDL

[36] = Acute toxicity in ICR mouse assessed as change in body weight at 1200 mg/kg, po and measured after 4 hrs; format: organism-based; details: in vivo
[37] = Metal chelating activity assessed as Fe3+-compound complex formation by measuring red shift in presence of FeCl3 at 40 uM incubated for 30 mins by UV-Visible spectrophotometry
[38] = Metal chelating activity assessed as Cu2+-compound complex formation by measuring red shift in presence of CuSO4 at 40 uM incubated for 30 mins by UV-Visible spectrophotometry
[39] = Acute toxicity in ICR mouse assessed as altered food consumption at 1200 mg/kg, po and measured after 4 hrs; format: organism-based; details: in vivo
Acetylcholinesterase [40] = target: Acetylcholinesterase (Electrophorus electricus, UniProt O42275); experiment: Inhibition of electric eel AChE using acetylthiocholine iodide as substrate preincubated for 15 mins followed by substrate addition by Ellman's method
Sequence of Acetylcholinesterase (Electrophorus electricus, UniProt O42275) (O42275 whole entry): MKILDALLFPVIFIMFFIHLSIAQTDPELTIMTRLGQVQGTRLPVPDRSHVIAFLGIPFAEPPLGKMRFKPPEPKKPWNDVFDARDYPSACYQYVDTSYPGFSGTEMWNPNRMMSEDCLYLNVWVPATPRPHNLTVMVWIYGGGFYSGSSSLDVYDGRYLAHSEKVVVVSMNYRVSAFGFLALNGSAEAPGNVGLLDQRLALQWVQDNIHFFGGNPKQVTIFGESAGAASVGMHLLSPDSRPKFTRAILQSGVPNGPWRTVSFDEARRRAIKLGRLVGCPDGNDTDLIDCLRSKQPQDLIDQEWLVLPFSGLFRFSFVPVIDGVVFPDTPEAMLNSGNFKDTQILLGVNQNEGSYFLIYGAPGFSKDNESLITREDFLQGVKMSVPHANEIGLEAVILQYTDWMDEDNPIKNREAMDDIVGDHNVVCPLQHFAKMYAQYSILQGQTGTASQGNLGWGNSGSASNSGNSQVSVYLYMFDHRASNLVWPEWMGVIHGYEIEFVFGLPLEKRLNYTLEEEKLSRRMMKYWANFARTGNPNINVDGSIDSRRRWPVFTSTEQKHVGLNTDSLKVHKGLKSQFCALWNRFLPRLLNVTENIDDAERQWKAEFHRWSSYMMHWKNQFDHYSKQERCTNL

[41] = Acute toxicity in ICR mouse assessed as mortality at 1200 mg/kg, po and measured after 4 hrs; format: organism-based; details: in vivo
Mus musculus [42] = experiment: Antialzheimer activity in human oligo-merized amyloid beta (1 to 42 residues)-induced cognitive impairment C57BL/6 mouse model assessed as decrease in escape latency at 15 mg/kg,ip qd for 10 days by Morris water maze test relative to control; format: functional, organism-based; details: time 10.0 day
[43] = target: T1, Amyloid-beta precursor protein; experiment: Inhibition of amyloid beta (1 to 42 ) (unknown origin) self aggregation incubated for 24 hr by Thioflavin T based fluorometric assay
Mus musculus [44] = experiment: Antialzheimer activity in human oligo-merized amyloid beta (1 to 42 residues)-induced cognitive impairment C57BL/6 mouse model assessed as decrease IL-1beta level in cortex at 15 mg/kg,ip qd for 10 days by ELISA; format: functional, organism-based; details: time 10.0 day

Cl.Oc1cccc2ccc(/C=C/C3=CCN(Cc4ccccc4C(F)(F)F)CC3)nc12
161 µM: IC50 (Acetylcholinesterase [35])
138 µM: IC50 (SH-SY5Y [14])
213 µM: IC50 (SH-SY5Y [33])
1660 µM: IC50 [21]
8.05 m: Activity (Mus musculus [4])
0.11 µM: IC50 (Acetylcholinesterase [40])
35.22 s: Time (Mus musculus [23])
inactive: inhibition [43]
82 µM: IC50 (SH-SY5Y [18])
434 µM: IC50 (SH-SY5Y [2])
active: inhibition [5] | inhibition [6] | Activity (SH-SY5Y [8]) | Activity (SH-SY5Y [10]) | Activity (SH-SY5Y [15]) | Activity (Mus musculus [17]) | inhibition [22] Dose-Dependent Effect | Activity [24] | Activity [25] | Activity (Mus musculus [27]) | Activity [28] | Activity (Mus musculus [30]) | Activity (SH-SY5Y [31]) | Activity (Mus musculus [34]) | Activity [37] | Activity [38] | Activity (Mus musculus [42]) | Activity (Mus musculus [44])
Non-Toxic: Activity [1] | Activity [3] | Activity [7] | Activity [9] | Activity (SH-SY5Y [11]) | Activity [12] | Activity [13] | Activity [16] | Activity [19] | Activity [20] | Activity [26] | Activity [29] | Activity [32] | Activity [36] | Activity [39] | Activity [41]
